Measured values reported in patent publication US11612606B2, “8-aminoisoquinoline compounds and uses thereof” (priority 2018, dated 2023).
pKi: −log10 of the molar value. Structures can show the parent of a compound that is named as a salt.

Target: HPK full length, T165E S171E (Homo sapiens (Human), UniProt Q92918, S171E/T165E)
Test: HPK1-FL HTRF enzymatic assay ("HTRF")
Format: biochemical
Conditions: ATP 1 mM, read-out: HPK1 Ki
Experimental: Assay Principle: HPK-FL enzyme phosphorylates Biotin-SLP-76 substrate in the presence of ATP at […] and varying concentrations of test compound. Product is detected by FRET using Eu-anti-pSLP76 Ab and SA-XL665. Also see www.cisbio.com/HTRF for additional HTRF technology information.
Instrumentation: Echo555 compound dispenser; Agilent Bravo; Perkin Elmer Envision.
To a 384 well Proxiplate with 80 nL compound or DMSO spotted on was added 4 μl/well kinase mix. The mixture was preincubated for 30 minutes and then 4 μl/well substrate mix was added. The solution was incubated for 60 min and then 4 μl/well detection mix was added. The solution was incubated for another 60 min.
Exemplary compounds were tested in the HTRF binding assays.

Sequence of HPK full length, T165E S171E (Q92918 whole entry T165E/S171E, looked up): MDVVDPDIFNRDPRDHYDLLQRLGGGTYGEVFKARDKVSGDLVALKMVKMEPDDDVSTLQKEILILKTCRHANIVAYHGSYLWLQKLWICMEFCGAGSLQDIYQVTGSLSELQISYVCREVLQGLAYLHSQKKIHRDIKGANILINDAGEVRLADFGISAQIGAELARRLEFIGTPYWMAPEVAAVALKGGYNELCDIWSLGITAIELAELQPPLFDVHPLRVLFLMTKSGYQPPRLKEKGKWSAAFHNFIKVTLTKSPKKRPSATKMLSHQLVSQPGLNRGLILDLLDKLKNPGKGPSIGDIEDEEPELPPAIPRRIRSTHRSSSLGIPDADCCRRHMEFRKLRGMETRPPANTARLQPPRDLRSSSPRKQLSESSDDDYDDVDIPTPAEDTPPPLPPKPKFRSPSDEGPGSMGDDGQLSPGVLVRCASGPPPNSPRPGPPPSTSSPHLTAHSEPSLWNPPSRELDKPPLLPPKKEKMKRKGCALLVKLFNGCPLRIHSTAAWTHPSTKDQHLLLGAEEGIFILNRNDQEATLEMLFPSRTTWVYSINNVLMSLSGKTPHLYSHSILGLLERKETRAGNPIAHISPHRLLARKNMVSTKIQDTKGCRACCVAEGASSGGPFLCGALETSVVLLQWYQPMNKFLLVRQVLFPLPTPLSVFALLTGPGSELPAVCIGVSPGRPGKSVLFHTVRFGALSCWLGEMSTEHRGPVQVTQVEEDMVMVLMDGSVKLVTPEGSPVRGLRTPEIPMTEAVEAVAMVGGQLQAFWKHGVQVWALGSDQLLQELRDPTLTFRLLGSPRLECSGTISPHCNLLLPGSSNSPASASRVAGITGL

Structure (SMILES)	pKi
CCN1C[C@H](OC(=O)Nc2cc3cc(-c4cnc5c(c4C)NCCO5)c(F)c(N)c3cn2)CC1=O (single isomer, unassigned) [Compound 478a]	9.60
CCN1C[C@@H](OC(=O)Nc2cc3cc(-c4cnc5c(c4C)NCCO5)c(F)c(N)c3cn2)CC1=O (single isomer, unassigned) [Compound 478b, (5)-1-Ethyl-5-oxopyrrolidin-3-yl (8-amino-7-fluoro-6-(8-methyl-2,3-dihydro-1H-pyrido[2,3-b][1,4]oxazin-7-yl)isoquinolin-3-yl)carbamate]	> 10.89
Cc1c(-c2cc3cc(NC(=O)O[C@H]4CC(=O)N(C(C)C)C4)ncc3c(N)c2F)cnc2c1NCCO2 (single isomer, unassigned) [Compound 479a]	10.68
Cc1c(-c2cc3cc(NC(=O)O[C@@H]4CC(=O)N(C(C)C)C4)ncc3c(N)c2F)cnc2c1NCCO2 (single isomer, unassigned) [Compound 479b]	> 10.89
Cc1c(-c2cc3cc(NC(=O)O[C@@H]4CN(C)C(=O)C4(C)C)ncc3c(N)c2F)cnc2c1NCCO2 (single isomer, unassigned) [Compound 480a]	10.47
Cc1c(-c2cc3cc(NC(=O)O[C@H]4CN(C)C(=O)C4(C)C)ncc3c(N)c2F)cnc2c1NCCO2 (single isomer, unassigned) [Compound 480b]	9.55
Cc1c(-c2cc3cc(NC(=O)O[C@H]4CC(=O)N(C)C4)ncc3c(N)c2F)cnc2c1NCCC2 (single isomer, unassigned) [Compound 481a]	9.74
Cc1c(-c2cc3cc(NC(=O)O[C@@H]4CC(=O)N(C)C4)ncc3c(N)c2F)cnc2c1NCCC2 (single isomer, unassigned) [Compound 481b]	10.74
Cc1c(-c2cc3cc(NC(=O)O[C@@H]4Cc5nccn5C4)ncc3c(N)c2F)cnc2c1NCCO2 (single isomer, unassigned) [Compound 504a]	> 10.89
Cc1c(-c2cc3cc(NC(=O)O[C@H]4Cc5nccn5C4)ncc3c(N)c2F)cnc2c1NCCO2 (single isomer, unassigned) [Compound 504b]	9.12
Cc1c(-c2cc3cc(NC(=O)OC4C5COCC4CN(C(C)C)C5)ncc3c(N)c2F)cnc2c1NCCO2 (single isomer, unassigned) [Compound 506a]	> 10.89
Cc1c(-c2cc3cc(NC(=O)OC4C5COCC4CN(CC(F)F)C5)ncc3c(N)c2F)cnc2c1NCCO2 (single isomer, unassigned) [Compound 507a]	> 10.89
Cc1c(-c2cc3cc(NC(=O)O[C@H]4CCO[C@@H]4C)ncc3c(N)c2F)cnc2c1NCCO2 (single isomer, unassigned) [Compound 510b]	9.51
Cc1c(-c2cc3cc(NC(=O)O[C@@H]4CCO[C@@H]4C)ncc3c(N)c2F)cnc2c1NCCO2 (single isomer, unassigned) [Compound 510d]	10.80
Cc1c(-c2cc3cc(NC(=O)O[C@@H]4CCC5(CCN(C6COC6)CC5)C4)ncc3c(N)c2F)cnc2c1NCCO2 (single isomer, unassigned) [Compound 511a]	> 10.89
Cc1c(-c2cc3cc(NC(=O)O[C@H]4CCC5(CCN(C6COC6)CC5)C4)ncc3c(N)c2F)cnc2c1NCCO2 (single isomer, unassigned) [Compound 511b]	10.77
CC[C@@H]1COC[C@H]1OC(=O)Nc1cc2cc(-c3cnc4c(c3C)NCCO4)c(F)c(N)c2cn1 (single isomer, unassigned) [Compound 515a]	9.98
CC[C@H]1COC[C@@H]1OC(=O)Nc1cc2cc(-c3cnc4c(c3C)NCCO4)c(F)c(N)c2cn1 (single isomer, unassigned) [Compound 515b]	10.77
Cc1c(-c2cc3cc(NC(=O)O[C@H]4COC[C@@H]4C4CC4)ncc3c(N)c2F)cnc2c1NCCO2 (single isomer, unassigned) [Compound 516a]	10.51
Cc1c(-c2cc3cc(NC(=O)O[C@@H]4COC[C@H]4C4CC4)ncc3c(N)c2F)cnc2c1NCCO2 (single isomer, unassigned) [Compound 516b]	> 10.89
Cc1c(-c2cc3cc(NC(=O)O[C@@H]4CCOC4)ncc3c(N)c2F)cnc2c1NC[C@@H](F)O2 (single isomer, unassigned) [Compound 518a]	10.16
Cc1c(-c2cc3cc(NC(=O)O[C@@H]4CCOC4)ncc3c(N)c2F)cnc2c1NC[C@H](F)O2 (single isomer, unassigned) [Compound 518b]	10.36
Cc1c(-c2cc3cc(NC(=O)O[C@H](C)CN(C)C)ncc3c(N)c2F)cnc2c1NCCO2 (single isomer, unassigned) [Compound 523a]	9.07
Cc1c(-c2cc3cc(NC(=O)O[C@@H](C)CN(C)C)ncc3c(N)c2F)cnc2c1NCCO2 (single isomer, unassigned) [Compound 523b, (5)-1-(Dimethylamino)propan-2-yl (8-amino-7-fluoro-6-(8-methyl-2,3-dihydro-1H-pyrido[2,3-b][1,4]oxazin-7-yl)isoquinolin-3-yl)carbamate]	8.06

Structure (SMILES)	pKi
Cc1c(-c2cc3cc(NC(=O)O[C@H](C)CO)ncc3c(N)c2F)cnc2c1NCCO2 (single isomer, unassigned) [Compound 530a]	9.59
Cc1c(-c2cc3cc(NC(=O)O[C@@H](C)CO)ncc3c(N)c2F)cnc2c1NCCO2 (single isomer, unassigned) [Compound 530b, (5)-1-Hydroxypropan-2-yl (8-amino-7-fluoro-6-(8-methyl-2,3-dihydro-1H-pyrido[2,3-b][1,4]oxazin-7-yl)isoquinolin-3-yl)carbamate]	9.96
Cc1c(-c2cc3cc(NC(=O)OC4CN(C(=O)[C@H]5C[C@@H]5F)C4)ncc3c(N)c2F)cnc2c1NCCC2 (single isomer, unassigned) [Compound 531a]	10.26
Cc1c(-c2cc3cc(NC(=O)OC4CN(C(=O)[C@@H]5C[C@H]5F)C4)ncc3c(N)c2F)cnc2c1NCCC2 (single isomer, unassigned) [Compound 531b]	9.82
Cc1c(-c2cc3cc(NC(=O)O[C@@H]4CC[C@@](C)(O)C4)ncc3c(N)c2F)cnc2c1NCCO2 (single isomer, unassigned) [Compound 533a, hydrochloride]	10.46
Cc1c(-c2cc3cc(NC(=O)O[C@H]4CC[C@](C)(O)C4)ncc3c(N)c2F)cnc2c1NCCO2 (single isomer, unassigned) [Compound 533b, hydrochloride]	10.23
Cc1c(-c2cc3cc(NC(=O)O[C@H]4CC[C@@](C)(O)C4)ncc3c(N)c2F)cnc2c1NCCO2 (single isomer, unassigned) [Compound 533c, hydrochloride]	10.85
Cc1c(-c2cc3cc(NC(=O)O[C@@H]4CC[C@](C)(O)C4)ncc3c(N)c2F)cnc2c1NCCO2 (single isomer, unassigned) [Compound 533d, hydrochloride]	10.82
Cc1c(-c2cc3cc(NC(=O)O[C@@H]4COC[C@H]4C#N)ncc3c(N)c2F)cnc2c1NCCO2 (single isomer, unassigned) [Compound 538a]	10.24
Cc1c(-c2cc3cc(NC(=O)O[C@H]4COC[C@@H]4C#N)ncc3c(N)c2F)cnc2c1NCCO2 (single isomer, unassigned) [Compound 538b]	10.80
Cc1c(N)cncc1-c1cc2cc(NC(=O)O[C@H]3COC[C@@H]3C)ncc2c(N)c1F (single isomer, unassigned) [Compound 544a]	9.86
Cc1c(N)cncc1-c1cc2cc(NC(=O)O[C@@H]3COC[C@H]3C)ncc2c(N)c1F (single isomer, unassigned) [Compound 544b]	8.57
Cc1c(-c2cc3cc(NC(=O)OC4CN(C(=O)[C@H]5C[C@@H]5F)C4)ncc3c(N)c2F)cnc2c1NCCO2 (single isomer, unassigned) [Compound 545a]	10.68
Cc1c(-c2cc3cc(NC(=O)OC4CN(C(=O)[C@@H]5C[C@H]5F)C4)ncc3c(N)c2F)cnc2c1NCCO2 (single isomer, unassigned) [Compound 545b]	10.74
CO[C@@H]1COC[C@H]1OC(=O)Nc1cc2cc(-c3cnc4c(c3C)NCCO4)c(F)c(N)c2cn1 (single isomer, unassigned) [Compound 546b]	10.29
CCc1c(-c2cc3cc(NC(=O)O[C@H]4COC[C@@H]4C)ncc3c(N)c2F)cnc2c1NCCO2 (single isomer, unassigned) [Compound 555a, hydrochloride]	> 10.89
Cc1c(-c2cc(N)c3cnc(NC(=O)O[C@H]4COC[C@@H]4C)cc3c2)cnc2c1NCCO2 (single isomer, unassigned) [Compound 556a, hydrochloride]	10.49
Cc1c(-c2cc(N)c3cnc(NC(=O)O[C@@H]4COC[C@H]4C)cc3c2)cnc2c1NCCO2 (single isomer, unassigned) [Compound 556b, hydrochloride]	> 10.89
Cc1c(-c2cc3cc(NC(=O)O[C@H]4COC[C@@H]4C)ncc3c(N)c2F)cnc2c1NC(=O)CO2 (single isomer, unassigned) [Compound 558a, hydrochloride]	9.05
Cc1c(-c2cc3cc(NC(=O)O[C@@H]4COC[C@H]4C)ncc3c(N)c2F)cnc2c1NC(=O)CO2 (single isomer, unassigned) [Compound 558b, hydrochloride]	8.43
Cc1c(-c2cc3cc(NC(=O)O[C@@H]4CC[C@@H]4C)ncc3c(N)c2F)cnc2c1NCCO2 (single isomer, unassigned) [Compound 559a]	10.60
Cc1c(-c2cc3cc(NC(=O)O[C@@H]4CC[C@@H]4C)ncc3c(N)c2F)cnc2c1NCCO2 (single isomer, unassigned) [Compound 559c]	> 10.89
Cc1c(-c2cc3cc(NC(=O)OC4CC(O)C4)ncc3c(N)c2F)cnc2c1NC[C@@H](C)C2 (single isomer, unassigned) [Compound 560a]	10.72
